Several values for one entry are separate records, joined by “and”; a condition that tells them apart may be missing. Equal entries are not always repeated. After the bases stand the sugars from the 5' end (letter, count) and the backbone: PS all phosphorothioate, else s phosphorothioate and o phosphodiester by linkage. Methylation of C is not given here. e = 2'-O-(2-methoxyethyl) (MOE); k = constrained ethyl (cEt); d = 2'-deoxy (DNA)

The first data set addresses IRF4. As to conditions: ASO, MM.1R, 0.074 µM.
Consider “CTCTATAGTGTTCCAG (sugars k3 d9 k3 e1, PS)”, for which the target mRNA inhibition worked out at 14%.

Staying with this data set, now noted: ASO, MM.1R, 0.222 µM.
For the sequence “CTCTATAGTGTTCCAG (sugars k3 d9 k3 e1, PS)”, the target mRNA inhibition is 30%.

Staying with this data set, now noted: ASO, MM.1R, 0.666 µM.
Turning to “CTCTATAGTGTTCCAG (sugars k3 d9 k3 e1, PS)”, the target mRNA inhibition is 54%.

Staying with this data set, now noted: ASO, MM.1R, 1 µM.
As to CGCGCAAGTCTACAGC (sugars k3 d10 k3, PS), the target mRNA inhibition worked out at 13%.

For CGGGTCTGAGATGTCC (sugars k3 d10 k3, PS), the target mRNA inhibition is -2%.

On to CGTAACAACGACACAC (sugars k3 d10 k3, PS), for which the target mRNA inhibition is -35%.

Regarding CGTAGTCCCTCCAGCT (sugars k3 d10 k3, PS), the target mRNA inhibition was 27%.

As to “CGTGTGCTTGCCAAGC (sugars kkdddddddddkekek, PS)”, the target mRNA inhibition is 49% and 43%.

On to CTACTCTTCAGGCACC (sugars k3 d10 k3, PS), for which the target mRNA inhibition is 18%.

For “CTATAGTGTTCCAGGA (sugars k3 d9 k3 e1, PS)”, the target mRNA inhibition was determined as 31%.

Regarding “CTATAGTGTTCCAGGA (sugars kkkddddddddkekek, PS)”, the target mRNA inhibition was determined as 23%.

CTCATCACCGAACACA (sugars k3 d10 k3, PS): the target mRNA inhibition is 8%.

With “CTCTATAGTGTTCCAG (sugars k3 d9 k3 e1, PS)”, the target mRNA inhibition came out at 65%.

For the sequence “CTCTATAGTGTTCCAG (sugars kkdddddddddkekek, PS)”, the target mRNA inhibition was found to be 22%.

For CTGAAACGGTCAGCAG (sugars k3 d10 k3, PS), the target mRNA inhibition came to 3%.

In the case of CTGAAAGCGAGTCAGA (sugars k3 d10 k3, PS), the target mRNA inhibition is 6%.

For the sequence CTGAGACTACACCTAC (sugars k3 d10 k3, PS), the target mRNA inhibition was -40%.

On to CTGAGTTACCGCATTG (sugars k3 d10 k3, PS), for which the target mRNA inhibition was 49% and 54%.

For CTGCCAAGTTGAAGAC (sugars k3 d10 k3, PS), the target mRNA inhibition is 33%.

Turning to “CTGCTTGAGGTTTTCC (sugars kddddddddddkekek, PS)”, the target mRNA inhibition worked out at 8%.

As for “CTGCTTGAGGTTTTCC (sugars kkdddddddddkdkdk, PS)”, the target mRNA inhibition stood at 36%.

With “CTGTTACCGATGCTTC (sugars kddddddddddkekek, PS)”, the target mRNA inhibition is 36% and 26%.

As to CTTAGGCACATCAATG (sugars k3 d10 k3, PS), the target mRNA inhibition is 8%.

The same data set, now with this note: ASO, MM.1R, 2 µM.
As to “CTCTATAGTGTTCCAG (sugars k3 d9 k3 e1, PS)”, the target mRNA inhibition stood at 76%.

Staying with this data set, now noted: ASO, SK-MEL-28, 4 µM.
On to CGCCTTAATGTTCAGC (sugars k3 d10 k3, PS), for which the target mRNA inhibition worked out at 66%.

As for CGCGCAAAGGGCAAGG (sugars k3 d10 k3, PS), the target mRNA inhibition amounted to 34%.

On to CGGAGCTTCCCGTTGC (sugars k3 d10 k3, PS), for which the target mRNA inhibition was 35%.

Consider CGGGAATTTCCATTGG (sugars k3 d10 k3, PS), for which the target mRNA inhibition stood at 50%.

In the case of CGGGAGAGCGGAGGCG (sugars k3 d10 k3, PS), the target mRNA inhibition amounted to 0%.

In the case of CGGGAGATAAAGAACA (sugars k3 d10 k3, PS), the target mRNA inhibition was determined as 31%.

As to CGGTAGAGTGAGATGC (sugars k3 d10 k3, PS), the target mRNA inhibition came to 54%.

Consider CGTAATACAAATAAAG (sugars k3 d10 k3, PS), for which the target mRNA inhibition worked out at 3%.

Turning to CGTCAAGGAGGCCTGG (sugars k3 d10 k3, PS), the target mRNA inhibition is 43%.

Take CGTCATGGGACATTGG (sugars k3 d10 k3, PS): the target mRNA inhibition is 56%.

For the sequence CGTGAAACAGCAGTTC (sugars k3 d10 k3, PS), the target mRNA inhibition came to 40%.

On to CGTTCCTTTTCAGAGT (sugars k3 d10 k3, PS), for which the target mRNA inhibition amounted to 30%.

Take CGTTCTCCCACACCAG (sugars k4 d8 k4, PS): the target mRNA inhibition was -1%.

Consider CTAAAGAATGAGGGTC (sugars k3 d10 k3, PS), for which the target mRNA inhibition was found to be 62%.

As to CTACCTCAGTTTGTGA (sugars k3 d10 k3, PS), the target mRNA inhibition was 41%.

Regarding CTACCTTTTTTGGCTC (sugars k3 d10 k3, PS), the target mRNA inhibition was found to be 17%.

In the case of CTACTGGGTACATGGC (sugars k3 d10 k3, PS), the target mRNA inhibition worked out at 84%.

As for CTAGATTCTCCCTGCA (sugars k3 d10 k3, PS), the target mRNA inhibition came to 34%.

Take CTAGTCAGTGTCAATA (sugars k3 d10 k3, PS): the target mRNA inhibition worked out at 51%.

Turning to CTATATAAAAAGTGGG (sugars k3 d10 k3, PS), the target mRNA inhibition is 16%.

On to CTATTAAACAGCACTC (sugars k3 d10 k3, PS), for which the target mRNA inhibition came out at 18%.

As for CTATTATAGAGCATCA (sugars k3 d10 k3, PS), the target mRNA inhibition was 55%.

Turning to CTCACACACAGGATGT (sugars k3 d10 k3, PS), the target mRNA inhibition worked out at 18%.

In the case of CTCCAGGGATGGAACA (sugars k3 d10 k3, PS), the target mRNA inhibition was determined as 19%.

On to CTCCATCAATCATGAT (sugars k3 d10 k3, PS), for which the target mRNA inhibition turned out to be 33%.

On to CTCCTTTTTTGGCTCC (sugars k4 d8 k4, PS), for which the target mRNA inhibition turned out to be 7%.

As for CTCTGCTCTGCACTCG (sugars k3 d10 k3, PS), the target mRNA inhibition worked out at 41%.

CTCTTACTCCGCTGAG (sugars k3 d10 k3, PS): the target mRNA inhibition is -5%.

In the case of CTGAACTGAAATCTCC (sugars k3 d10 k3, PS), the target mRNA inhibition was 64% and 63%.

With CTGAACTGTGTAACTC (sugars k3 d10 k3, PS), the target mRNA inhibition worked out at 28%.

Turning to CTGATCGCTGGACAGC (sugars k3 d10 k3, PS), the target mRNA inhibition turned out to be 20%.

Regarding CTGCACTCGCCCTGGA (sugars k3 d10 k3, PS), the target mRNA inhibition was 42%.

Consider CTGCAGCCAAGGATAA (sugars k3 d10 k3, PS), for which the target mRNA inhibition is 48%.

As to CTGCATCAAATCAAGT (sugars k3 d10 k3, PS), the target mRNA inhibition was determined as 47%.

In the case of CTGCATTTGCAAATAA (sugars k4 d8 k4, PS), the target mRNA inhibition is -8%.

As to CTGGAACATTGTTGGA (sugars k3 d10 k3, PS), the target mRNA inhibition was 46%.

In the case of CTGGAGAGCAATGAAC (sugars k3 d10 k3, PS), the target mRNA inhibition was 67%.

For CTGGAGTGAACCCTTC (sugars k3 d10 k3, PS), the target mRNA inhibition stood at 56%.

For the sequence CTGGCATCGAGACGGG (sugars k3 d10 k3, PS), the target mRNA inhibition was 47%.

Turning to CTGGCTCCGCTCAACC (sugars k3 d10 k3, PS), the target mRNA inhibition amounted to 52%.

On to CTGTAACTGACTAACA (sugars k3 d10 k3, PS), for which the target mRNA inhibition was 23%.

As for CTGTAGGATTTTACAT (sugars k3 d10 k3, PS), the target mRNA inhibition is 24%.

For the sequence CTGTAGTATGAGAAAC (sugars k3 d10 k3, PS), the target mRNA inhibition amounted to 45%.

As to CTGTTAGCTACAAAGA (sugars k3 d10 k3, PS), the target mRNA inhibition was 56%.

Consider CTTAGAATGCATAACA (sugars k3 d10 k3, PS), for which the target mRNA inhibition was 26%.

CTTATAGCACTCTCCT (sugars k3 d10 k3, PS): the target mRNA inhibition was 33%.

CTTCACTCAGCAAGTG (sugars k3 d10 k3, PS): the target mRNA inhibition came to 43%.

Take CTTCATCAGACTAAGT (sugars k3 d10 k3, PS): the target mRNA inhibition amounted to 31%.

Regarding CTTCTTCTTTATGCGA (sugars k3 d10 k3, PS), the target mRNA inhibition was 66%.

These data come from the OligoGym collection.
